Reference: patent US10974036B2, “Implantable device for long-term delivery of drugs” (Delpor, Inc., priority 2009, dated 2021)
≈ marks a conversion by molar mass, not a printed value. Where “and” joins values, the source holds several entries; their conditions need not be identical. Equal values may be shown once. Read-outs that look alike come from different tables or passages of the source.

Tests used:
in vivo = settings: human, plasma, iv
[1] = cited from earlier work
[2] = cited from earlier work; remark: listed apart in the source
[3] = PBS, 37° C.
Experimental: In yet another study, devices were prepared as described herein an tested in vitro and in vivo.
Two groups of devices (n=6) were prepared. The main body of each device consisted of a cylindrical titanium tube, definining an internal reservoir. The tubes were 35 mm in length, with an outer diameter (OD) of 4.3 mm and an inner diameter (ID) of about 3 mm (Peridot Manufacturing, Pleasanton, Calif.). Both ends of each tube were tapered (lathed) so as to accept a press cap which served to retain a porous partition, as illustrated in FIGS. 4-5. The first group of devices was fitted on one end with a titanium sintered frit having a diameter 3.5 mm, a depth 0.5 mm, and a 5 micron nominal particle retention size (Applied Porous Materials, Farmington, Conn.). The frit was secured in each tube by placing the tube horizontally in a holder, and then positioning over the open end, in sequence, the frit, an o-ring and the press cap.
A 2.5 mm stainless steel ball was placed in the reservoir to provide mixing. A second frit was sealed to the remaining open end of the reservoir using the same procedure as described above for the other end. […]
Both groups of devices were equally split, each subgroup of 3 devices destined for either in vitro or in vivo testing. In vitro release rate was determined by submerging the devices in 1 mL PBS held in screw cap cryo-vials. […]

[4] = In vitro release of risperidone, Franz-type diffusion cells with different porous partitions (Example 1); type: physicochemical; settings: after 3-4 day equilibration phase, suspension with PLGA, room temperature
Source text: As described in Example 1, typical Franz-type diffusion cells were fitted with a porous partition separating a donor chamber from a receptor chamber. The partitions were selected to span a wide range of pore sizes (i.e., molecular weight cut-off or “MWCO”, values or nominal pose diameter) The porous partitions selected for use in this study had molecular weight cut-off values of 100,000 Daltons and 3,000 Daltons. In addition, a porous partition in the form of a […] polyvinyldenefluoride membrane filter (Durapore®) was used.
Sustained, substantially zero-order release rate was obtained, as best seen in FIG. 7B.
Typical Franz-type diffusion cells were fitted with porous partitions separating a donor chamber from a receptor chamber. The porous partitions were membranes with pore sizes of 3,000 Daltons molecular weight cut-off, 100,000 Daltons molecular weight cut-off and a 0.45 micron polyvinyldenefluoride membrane filter (Durapore®). […] The cells were maintained at room temperature. […] Buffer was replaced each day.

[5] = In vivo plasma concentration after subcutaneous implantation of devices in rats (Example 5, FIG. 12B); settings: subcutaneous device containing risperidone only, first week
Experimental: For in vivo experiments, rats were anesthetized and devices placed subcutaneously in the dorsum, lateral to the midline, using a trocar. Whole blood samples were obtained by tail vein venous puncture. Plasma was immediately separated from formed elements by centrifugation. […] The lower limit of quantitation was 0.10 ng/mL.

[6] = 100 mg risperidone, PBS pH 7.4, 37° C.
Experimental: Two groups of drug delivery devices were assembled as follows. Cylindrical titanium tubes, 4 mm in diameter and 35 mm in length, were prepared. […] The reservoirs of the devices were filled with phosphate buffered saline (PBS) at pH 7.4 under reduced pressure. Each of the devices in Group B was fitted with two regenerated cellulose membranes (5000 Daltons molecular weight cut off) at each end of the cylindrical tube by sandwiching the membrane between an o-ring and titanium frit (5 micron pores), as illustrated in FIGS. 5A-5B. The devices in Group A were identical, except the cellulose membrane was omitted, as illustrated in FIGS. 4A-4B. The devices were then placed individually in tubes containing approximately 1 mL PBS. The tubes were placed on a rotating rack (1 revolution per hour) at 37° C.
Buffer was diluted to 20-50 micrograms/mL prior to measurement to insure that the concentration was within the linear range of the UV measurement. Buffer was replaced each day.

Row | SMILES | clearance (in vivo) | Water solubility (mg/mL) acidic pH ([1]; acidic pH) | Water solubility (mg/mL) neutral pH [1] | Half-life ([2]; in vivo) | Target Steady state plasma conc ([2]; in vivo) | CL(L/hr) (iv) [2] | Bioavailability oral [2] | also measured
1 | O=C(CCCN1CCC(O)(c2ccc(Cl)cc2)CC1)c1ccc(F)cc1 [Haloperidol, haloperidol] | 667 mL/min | 4.2 mg/mL | 0.025 mg/mL | 29 h | 2 ng/mL | 42 L/h and 22 L/h | 65% | –
2 | Cc1nc2n(c(=O)c1CCN1CCC(c3noc4cc(F)ccc34)CC1)CCCC2 [Risperidone, risperidone] | – | – | – | – | 20 ng/mL | – | – | release rate (5 mg 85:15 PLGA in suspension (FIG. 9)): 0.25 mg/day; release rate (10 mg 85:15 PLGA in suspension (FIG. 9)): 0.43 mg/day; release rate (15 mg 85:15 PLGA in suspension (FIG. 9)): 0.64 mg/day; in vitro release rate ([3]; devices with PLGA (15 mg 50:50 and 50 mg 85:15), maintained for 30 days): above 0.4 mg/day; in vitro release rate ([3]; devices without PLGA, throughout 30 days): less than 0.05 mg/day; release rate of risperidone ([4]; 0.45 polyvinyldenefluoride membrane filter (Durapore)): 70 µg/day; release rate of risperidone ([4]; porous partition 3,000 Dalton molecular weight cut-off): 100 µg/day; release rate of risperidone ([4]; porous partition 100,000 Dalton molecular weight cut-off): 200 µg/day; plasma levels of risperidone (plus 9-hydroxyrisperidone) [5]: barely detectable; average release rate ([6]; devices with 5 mg 50:50 PLGA and 15 mg 85:15 PLGA (Group B)): 1 to 1.2 mg/day; release rate ([6]; devices without PLGA (Group A)): less than 0.05 mg/day
3 | CN1CC2c3ccccc3Oc3ccc(Cl)cc3C2C1 (stereo not shown) [Asenapine, asenapine] | 867 mL/min | 13 mg/mL | 3.0 mg/mL | 24 h | 2.1 ng/mL | 52 L/h | < 2% | solubility ([1]; in 0.1N HCl): 13000 µg/mL (≈ 45.5 mM); water solubility ([1]; pH 7-7.4): 3000 µg/mL (≈ 10.5 mM); water solubility ([1]; pH 7.0): 3000 µg/mL (≈ 10.5 mM); plasma clearance ([2]; in vivo): 52 L/h; Bioavailability sublingual ([2]; sublingual): 30%
4 | Cc1cc2c(s1)Nc1ccccc1N=C2N1CCN(C)CC1 [Olanzapine, olanzapine] | – | – | – | – | 30 ng/mL | – | 60% | –
5 | Cc1nc2n(c(=O)c1CCN1CCC(c3noc4cc(F)ccc34)CC1)CCCC2O (stereo not shown) [Paliperidone, paliperidone] | – | – | 0.54 mg/mL | 24 h | – | – | – | Water solubility acidic pH relative to neutral pH ([1]; acidic pH): 100 x neutral
6 | O=C1CCc2ccc(OCCCCN3CCN(c4cccc(Cl)c4Cl)CC3)cc2N1 [Aripiprazole, aripiprazole] | 39.6 mL/min | – | – | 3 h | 100 ng/mL | 2.37 L/h | – | –
